Data reported in PMC9338942, “(+)-Usnic acid and its salts, inhibitors of SARS‐CoV‐2, identified by using in silico methods and in vitro assay” (Scientific Reports, 2022).

Experiments:
Test in all cases: microbe, parasite or virus in culture
Type in all cases: cell-based
Conditions in all cases: Severe acute respiratory syndrome coronavirus 2, vero cells
[1] = tested on: SARS-CoV-2 Alpha var (B.1.1.7)
[2] = tested on: SARS-CoV-2 Beta var (B.1.351)
[3] = tested on: SARS-CoV-2 Delta var (B.1.617.2)

Row | SMILES | IC50 [1] [µM] | IC50 [2] [nM] | IC50 [3] [µM]
1 | CC(=O)c1c(O)c(C)c(O)c2c1OC1=CC(=O)C(C(C)=O)C(=O)[C@@]12C (single isomer, unassigned; (+)) [(+)-usnic acid] | 6.05 | 2920 | 7.17
2 | CCN(CC)CCCC(C)Nc1ccnc2cc(Cl)ccc12 (stereo not drawn) [chloroquine] | 6.16 | 2640 | 6.22
3 | Cc1cccc(C)c1OCC(=O)N[C@@H](Cc1ccccc1)[C@@H](O)C[C@H](Cc1ccccc1)NC(=O)[C@H](C(C)C)N1CCCNC1=O [lopinavir] | 10.8 | 11800 | 15.3
4 | CCC(CC)COC(=O)[C@H](C)N[P@](=O)(OC[C@H]1O[C@@](C#N)(c2ccc3c(N)ncnn23)[C@H](O)[C@@H]1O)Oc1ccccc1 [remdesivir] | 2.25 | 1470 | 6.48
